Values of other authors, collected in article PMC9943811 (Diabetes Therapy, 2022).

Conditions: ref [19], [20]

Which terminal half-life does the source give for `N[C@@H](CC(=O)N1CCn2c(nnc2C(F)(F)F)C1)Cc1cc(F)c(F)cc1F` [sitagliptin] here?
The terminal half-life was “around 12 h”.
